In PMC10528299, “Targeting FAK/PYK2 with SJP1602 for Anti-Tumor Activity in Triple-Negative Breast Cancer” (Current Issues in Molecular Biology, 2023):

Assays:
FAK = target: T1, FAK (Homo sapiens, UniProt Q05397); assay: ADP-Glo kinase assay FAK; format: biochemical; conditions: mean ± SEM (n = 3)
T1 construct: purchased Promega V1971
Experimental: (§1) The kinase assays were performed and quantified according to the manufacturer’s instructions using the ADP-Glo™ Kinase Assay Kit for FAK (Promega, V1971), PYK2 (Promega, V4083) and InsR (Promega, V3901). Each kinase reaction mixture was prepared to contain the compounds of interest. After thorough pipetting, 25 μL of the mixture was added to each well and incubated for 1 h at room temperature. Subsequently, 25 μL of ADP-Glo reagent was added, followed by a 40 m incubation at room temperature. Next, 50 μL of the kinase detection reagent was added, and the mixture was incubated for an additional 30 m at room temperature. Luminescence was measured using the Tecan Spark 10M (Integration time: 1 s) (Männedorf, Switzerland).

Insulin Receptor (InsR) = target: T2, Insulin Receptor (InsR) (Homo sapiens, UniProt P06213); assay: ADP-Glo kinase assay InsR; format: biochemical; conditions: mean ± SEM (n = 3)
T2 construct: purchased Promega V3901
T2 sequence (P06213 28-1382): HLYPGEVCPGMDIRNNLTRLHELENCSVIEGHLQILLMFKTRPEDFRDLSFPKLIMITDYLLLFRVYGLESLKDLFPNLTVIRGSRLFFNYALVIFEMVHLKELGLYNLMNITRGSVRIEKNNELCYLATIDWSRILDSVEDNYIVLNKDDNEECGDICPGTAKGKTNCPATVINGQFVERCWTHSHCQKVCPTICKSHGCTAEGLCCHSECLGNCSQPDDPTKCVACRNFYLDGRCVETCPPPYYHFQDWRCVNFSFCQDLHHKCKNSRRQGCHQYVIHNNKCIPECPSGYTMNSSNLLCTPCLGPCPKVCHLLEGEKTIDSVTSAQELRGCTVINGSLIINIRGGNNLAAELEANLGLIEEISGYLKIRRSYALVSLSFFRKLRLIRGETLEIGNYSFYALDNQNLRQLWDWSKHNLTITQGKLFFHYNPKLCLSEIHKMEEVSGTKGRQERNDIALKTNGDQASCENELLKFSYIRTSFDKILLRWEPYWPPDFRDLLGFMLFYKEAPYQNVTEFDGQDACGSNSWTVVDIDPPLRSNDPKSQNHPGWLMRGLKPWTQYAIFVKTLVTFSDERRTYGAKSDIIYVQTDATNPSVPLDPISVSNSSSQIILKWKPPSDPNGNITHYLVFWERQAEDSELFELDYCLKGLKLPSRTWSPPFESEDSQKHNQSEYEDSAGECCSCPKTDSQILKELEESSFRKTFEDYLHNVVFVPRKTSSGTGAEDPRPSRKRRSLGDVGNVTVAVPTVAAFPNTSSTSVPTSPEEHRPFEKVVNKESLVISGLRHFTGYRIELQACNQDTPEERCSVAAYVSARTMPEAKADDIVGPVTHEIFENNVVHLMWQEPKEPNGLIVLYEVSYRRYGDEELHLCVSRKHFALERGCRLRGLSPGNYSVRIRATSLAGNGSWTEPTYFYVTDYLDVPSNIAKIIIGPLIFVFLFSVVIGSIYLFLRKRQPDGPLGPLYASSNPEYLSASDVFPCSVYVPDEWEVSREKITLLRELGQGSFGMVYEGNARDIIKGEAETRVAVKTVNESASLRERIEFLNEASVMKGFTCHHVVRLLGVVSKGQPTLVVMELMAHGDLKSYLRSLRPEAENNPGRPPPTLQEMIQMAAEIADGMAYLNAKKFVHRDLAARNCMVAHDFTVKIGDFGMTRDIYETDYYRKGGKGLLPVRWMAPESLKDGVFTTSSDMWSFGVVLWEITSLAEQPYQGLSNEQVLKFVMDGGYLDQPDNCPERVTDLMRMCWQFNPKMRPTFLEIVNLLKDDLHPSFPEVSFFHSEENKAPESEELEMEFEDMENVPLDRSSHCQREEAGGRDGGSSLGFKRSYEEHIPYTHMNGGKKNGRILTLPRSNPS
Experimental: as §1

[1] = target: T3, FAK [pY397] in MDA-MB-231 cells (Homo sapiens, UniProt Q05397); assay: FAK [pY397] ELISA in MDA-MB-231 cells; format: cell-based; conditions: MDA-MB-231, 1 h treatment, mean ± SEM (n = 3); read-out: IC50 FAK phosphorylation (pY397 ELISA)
T3 construct: endogenous in cells; host or cells: MDA-MB-231
T3 sequence (Q05397 whole entry): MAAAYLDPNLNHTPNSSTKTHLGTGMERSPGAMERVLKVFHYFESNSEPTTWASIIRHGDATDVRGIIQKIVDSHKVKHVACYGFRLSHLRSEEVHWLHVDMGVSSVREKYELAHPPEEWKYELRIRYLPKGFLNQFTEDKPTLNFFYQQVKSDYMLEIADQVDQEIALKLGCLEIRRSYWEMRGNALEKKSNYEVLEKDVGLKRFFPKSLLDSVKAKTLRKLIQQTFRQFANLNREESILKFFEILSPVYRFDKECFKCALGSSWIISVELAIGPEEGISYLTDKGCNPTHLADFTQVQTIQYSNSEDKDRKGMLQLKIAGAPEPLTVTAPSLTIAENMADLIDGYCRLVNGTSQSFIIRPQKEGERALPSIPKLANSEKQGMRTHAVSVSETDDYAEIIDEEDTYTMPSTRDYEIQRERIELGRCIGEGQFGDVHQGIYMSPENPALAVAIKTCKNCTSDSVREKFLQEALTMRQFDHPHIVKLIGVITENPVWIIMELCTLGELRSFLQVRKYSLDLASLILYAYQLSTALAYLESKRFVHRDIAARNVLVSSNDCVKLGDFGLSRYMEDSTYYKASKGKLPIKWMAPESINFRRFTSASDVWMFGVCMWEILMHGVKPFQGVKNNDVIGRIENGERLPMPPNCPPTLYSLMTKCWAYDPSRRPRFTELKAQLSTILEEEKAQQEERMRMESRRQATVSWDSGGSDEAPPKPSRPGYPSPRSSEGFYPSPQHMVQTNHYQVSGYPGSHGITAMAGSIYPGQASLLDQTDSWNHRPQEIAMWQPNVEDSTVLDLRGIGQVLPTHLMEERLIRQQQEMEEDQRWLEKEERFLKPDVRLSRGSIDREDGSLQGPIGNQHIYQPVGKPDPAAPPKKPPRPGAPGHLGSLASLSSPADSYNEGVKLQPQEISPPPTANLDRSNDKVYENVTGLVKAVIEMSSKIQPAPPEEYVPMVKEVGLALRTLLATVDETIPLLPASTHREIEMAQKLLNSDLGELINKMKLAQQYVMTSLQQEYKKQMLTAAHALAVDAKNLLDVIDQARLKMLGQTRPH
Experimental: (§2) TNBC cells were seeded into 60 mm dishes at a density of 1 × 10^6 cells/dish in 5 mL of culture media. After 24 h, cells were treated with concentrations ranging from 1 nM to 10 μM of SJP1602 for 1 h, and cell lysates were prepared to detect phospho-FAK levels. The FAK [pY397] enzyme-linked immunosorbent assay was performed according to the manufacturer’s instructions. The absorbance at 450 nm was measured to quantify the results.

[2] = target: T4, FAK [pY397] in MDA-MB-453 cells (Homo sapiens, UniProt Q05397); assay: FAK [pY397] ELISA in MDA-MB-453 cells; format: cell-based; conditions: MDA-MB-453, 1 h treatment, mean ± SEM (n = 3); read-out: IC50 FAK phosphorylation (pY397 ELISA)
T4 construct: endogenous in cells; host or cells: MDA-MB-453
T4 sequence (Q05397 whole entry): as above
Experimental: as §2

[3] = target: T5, FAK [pY397] in HCC70 cells (Homo sapiens, UniProt Q05397); assay: FAK [pY397] ELISA in HCC70 cells; format: cell-based; conditions: HCC70, 1 h treatment, mean ± SEM (n = 3); read-out: IC50 FAK phosphorylation (pY397 ELISA)
T5 construct: endogenous in cells; host or cells: HCC70
T5 sequence (Q05397 whole entry): as above
Experimental: as §2

[4] = test system: MDA-MB-231, 4T1, and Hs578T cells; assay: 3D cell invasion assay; format: cell-based; conditions: 1 µM, 72 h, compared to VS-6063 and GSK 2256098
Experimental: Cells were added to an ultra-low 96-well round-bottom plate at a density of 5 × 10^3 cells/well and cultured for 3 days to form spheroids. The medium was removed, and a mixture of neutralized Type I Collagen and Matrigel was added to the wells. After 1 h of incubation, compound concentrations (2×) in 100 μL of solution were added per well. The plate was then incubated for 72 h. Relative invasion was quantified based on the following formula using the microscope and imaging software ImageJ (Version 2.1.0/1.54e, National Institutes of Health, Bethesda, MD, USA):Relative invasion = (total area of compound treated group − spheroid area of compound treated group/(total area of control − spheroid area of control)(1)

[5] = Pharmacokinetics in SD rats; format: in vivo, rat
Experimental: The pharmacokinetics (PK) study was conducted in male SD rats. Three rats received a single-dose intravenous injection of SJP1602 at 5 mg/kg, and another set of three rats received a single-dose oral administration of SJP1602 at 20 mg/kg. The vehicle composition used was DMA 3% and Cremophor ELP 4%. Blood drug concentrations over time were determined by drawing blood after 0.17, 0.5, 1, 2, 4, 6, and 24 h. Plasma was isolated using K3EDTA anticoagulation tubes, and the drug concentration in the plasma was analyzed by LC/MS/MS (Waters, MA, USA). To analyze the concentration of pretreated rat plasma samples, a Waters Acquity ultra-performance liquid chromatography system (UPLC, Waters) was employed, in tandem with a C18 column (Acquity UPLC® BEH C18 1.7 μm, 2.1 × 50 mm). The mass spectrometry analysis was conducted using the Waters Xevo-TQ-S micro. For the mobile phases, phase A consisted of distilled water with 0.1% formic acid, while phase B comprised methanol, also with 0.1% formic acid. PK parameters were subsequently derived using WinNonlin software (version 2.1), which enabled the determination of AUC (ng×h/mL), Cmax (ng/mL), and bioavailability (BA). The area under the drug concentration curve (AUC) was calculated utilizing the trapezoidal rule, focusing on the time interval AUC0–24h.

[6] = Cytotoxicity on normal cell line CCD-18Co; format: cell-based; conditions: human, CCD-18Co cells (normal cell line); read-out: Cytotoxicity on Normal Cell Lines IC50
[7] = Cytotoxicity on normal cell line FDF; format: cell-based; conditions: FDF cells (normal cell line); read-out: Cytotoxicity on Normal Cell Lines IC50
[8] = male, SD, rat, plasma, po, 20 mg/kg, po 20 mg/kg, male SD rats
[9] = rat, plasma, iv 5 mg/kg, male SD rats
[10] = rat, plasma, po 20 mg/kg, male SD rats

T1 sequence (Q05397 whole entry): as above

CNC(=O)c1cccc(C)c1Nc1nc(Nc2ccc(N3CCN(C4C5CC6CC4CC(O)(C6)C5)CC3)cc2OC)ncc1C(F)(F)F (centres unmarked) [SJP1602, 2-((2-((4-(4-((2s,5r)-5-hydroxyadamantan-2-yl)piperazin-1-yl)-2-methoxyphenyl)amino)-5-(trifluoromethyl)pyrimidin-4-yl)amino)-N,3-dimethylbenzamide]
IC50 (FAK): 3.7 ± 0.007 nM
IC50 (Insulin Receptor (InsR)): 1170 ± 60.1 nM
IC50 [1]: 20 ± 7 nM
IC50 [2]: 43 ± 16 nM
IC50 [3]: 83 ± 17 nM
TNBC cell invasion (3D) [4]: significantly inhibits
half-life ([5]; male, SD, rat, plasma, iv, 5 mg/kg, iv 5 mg/kg, male SD rats): 0.93 ± 0.25 h
bioavailability [5, 8]: 45%
half-life [5, 8]: 2.2 h
AUC ([5]; male, SD, rat, plasma, single oral dose 20 mg/kg, rats, read-out: area under the curve (AUC)): 22 µM·h
T1/2 ([5]; po 20 mg/kg, male SD rats, 20 mg/kg): 2.24 ± 0.19 h
AUC(0-t) [5, 9]: 7070 ng·h/mL
Cmax [5, 9]: 3890 ng/mL
Tmax [5, 9]: 0.28 h
AUC(0-t) [5, 10]: 14700 ng·h/mL
Cmax [5, 10]: 3270 ng/mL
Tmax [5, 10]: 1 h
peak concentration ([5]; single oral dose 20 mg/kg, rats): 4.9 µmol/L
IC50 [6]: > 10000 nM
IC50 [7]: > 10000 nM
